Measured values from the supplement of paper PMC10307832.

How the values were obtained:
Assay in all cases: relative viability (nuclei count vs DMSO), 5 days (fraction); higher = more cells survive
[1] = compound: COc1ccc(-c2ccc3c(N4CCOC[C@@H]4C)nc(N4CCOC[C@@H]4C)nc3n2)cc1CO [AZD8055] + N=C(N)NC(=N)NCCc1ccccc1 [Phenformin] (partner 250 µM)
Outline: (§1)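 Relative viability was taken as the ratio of nuclei in treated wells to nuclei in vehicle wells. Lung cancer cell lines in 1536-well plates received compounds by pin tool one day after seeding, either one drug alone or a fixed anchor-drug dose plus five library-drug doses (not always all listed) in √10 steps. Nuclei were counted on 4× images after 5 days of treatment, and values are medians of duplicate plates.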

[2] = compound: COc1ccc(-c2ccc3c(N4CCOC[C@@H]4C)nc(N4CCOC[C@@H]4C)nc3n2)cc1CO [AZD8055] + COc1cccc2cc(-c3nc([C@H]4CC[C@H](C(=O)O)CC4)n4ncnc(N)c34)[nH]c12 [OSI-027] (partner 0.5 µM)
Outline: as §1

[3] = compound: COc1ccc(-c2ccc3c(N4CCOC[C@@H]4C)nc(N4CCOC[C@@H]4C)nc3n2)cc1CO [AZD8055] + C[C@@H](Oc1cc(-c2cnn(C3CCNCC3)c2)cnc1N)c1c(Cl)ccc(F)c1Cl [Crizotinib] (partner 1 µM)
Outline: as §1

[4] = compound: COc1ccc(-c2ccc3c(N4CCOC[C@@H]4C)nc(N4CCOC[C@@H]4C)nc3n2)cc1CO [AZD8055] + CC(=O)Nc1cccc(-n2c(=O)n(C3CC3)c(=O)c3c(Nc4ccc(I)cc4F)n(C)c(=O)c(C)c32)c1 [Trametinib] (partner 0.02 µM)
Outline: as §1

Cell Line	relative viability ([1]; first compound 0.01 µM)	relative viability ([1]; first compound 0.03162 µM)	relative viability ([1]; first compound 0.1 µM)	relative viability ([1]; first compound 0.3162 µM)	relative viability ([1]; first compound 1 µM)	relative viability ([2]; first compound 0.01 µM)	relative viability ([2]; first compound 0.03162 µM)	relative viability ([2]; first compound 0.1 µM)	relative viability ([2]; first compound 0.3162 µM)	relative viability ([2]; first compound 1 µM)	relative viability ([3]; first compound 0.01 µM)	relative viability ([3]; first compound 0.03162 µM)	relative viability ([3]; first compound 0.1 µM)	relative viability ([3]; first compound 0.3162 µM)	relative viability ([3]; first compound 1 µM)	relative viability ([4]; first compound 0.01 µM)	relative viability ([4]; first compound 0.03162 µM)	relative viability ([4]; first compound 0.1 µM)	relative viability ([4]; first compound 0.3162 µM)	relative viability ([4]; first compound 1 µM)
HCC-366	0.737	0.449	0.592	0.23	0.168	1.08	1.01	0.845	0.437	0.288	0.416	0.484	0.223	0.107	0.0921	0.35	0.217	0.166	0.0931	0.0678
HCC-827	0.426	0.395	0.416	0.349	0.288	0.798	0.746	0.809	0.604	0.641	1	0.965	0.991	0.479	0.393	0.499	0.445	0.364	0.264	0.258
HOP-62	0.717	0.628	0.585	0.462	0.294	0.902	0.795	0.87	0.585	0.453	0.837	0.853	0.71	0.387	0.345	0.423	0.338	0.27	0.195	0.194
IA-LM	–	–	–	–	–	–	–	–	–	–	0.923	0.472	0.347	0.0713	0.105	–	–	–	–	–
LC-2-ad	0.549	0.564	0.538	0.336	0.362	0.937	0.864	0.706	0.618	0.523	0.429	0.502	0.473	0.384	0.312	0.989	0.917	0.828	0.907	0.715
LCLC-97TM1	0.477	0.182	0.178	0.121	0.187	0.502	0.472	0.577	0.422	0.415	0.365	0.352	0.154	0.158	0.193	0.194	0.164	0.124	0.138	0.123
LCLC-103H	0.307	0.291	0.268	0.206	0.224	0.444	0.437	0.44	0.356	0.32	1.04	0.918	0.719	0.807	0.484	0.628	0.636	0.469	0.456	0.425
LK-2	0.234	0.186	0.118	0.198	0.239	0.22	0.242	0.209	0.166	0.186	0.231	0.188	0.267	0.205	0.211	0.68	0.575	0.509	0.238	0.199
LOU-NH91	0.678	0.711	0.532	0.49	0.455	0.775	0.797	0.66	0.569	0.556	0.71	0.713	0.673	0.592	0.531	0.765	0.74	0.64	0.564	0.587
LU99A	0.802	0.626	0.492	0.276	0.28	0.297	0.311	0.322	0.264	0.254	0.517	0.329	0.234	0.233	0.232	0.403	0.337	0.308	0.203	0.191
LXF-289	0.539	0.534	0.508	0.458	0.385	0.891	0.899	0.727	0.693	0.625	0.902	0.855	0.807	0.702	0.686	0.75	0.606	0.627	0.392	0.333
NCI-H522	0.69	0.624	0.669	0.48	0.56	0.698	0.757	0.803	0.67	0.632	–	–	–	–	–	0.747	0.648	0.574	0.494	0.462
NCI-H1395	0.447	0.396	0.333	0.394	0.374	0.657	0.618	0.535	0.443	0.422	–	–	–	–	–	0.977	0.793	0.712	0.514	0.544
NCI-H1563	0.632	0.66	0.617	0.656	0.641	0.776	0.731	0.681	0.629	0.599	0.769	0.81	0.697	0.6	0.679	–	–	–	–	–
NCI-H1648	–	–	–	–	–	0.27	0.235	0.289	0.234	0.296	–	–	–	–	–	0.396	0.446	0.342	0.316	0.209
NCI-H1703	–	–	–	–	–	–	–	–	–	–	0.635	0.489	0.508	0.4	0.222	–	–	–	–	–
NCI-H1793	0.405	0.272	0.196	0.203	0.207	0.291	0.215	0.196	0.18	0.202	–	–	–	–	–	0.449	0.274	0.279	0.183	0.22
NCI-H2342	0.609	0.495	0.429	0.394	0.437	0.598	0.621	0.571	0.529	0.594	–	–	–	–	–	0.894	0.731	0.598	0.552	0.525
SW 900	0.568	0.343	0.489	0.368	0.169	0.592	0.602	0.536	0.311	0.196	–	–	–	–	–	0.897	0.783	0.622	0.374	0.505
